Experimental data: patent publication US12440457B2, “Methods of treating suicidality” (Seelos Therapeutics, Inc., priority 2020, dated 2025)

Assays:
[1] = Pham et al. 2018; cited from earlier work
[2] = Leung and Baillie 1986; cited from earlier work
[3] = test system: adults with major depressive disorder at imminent risk of suicide; assay: Phase 2 study, S-STS CMCM Risk of Suicide at Within the Next 7 Days; type: in vivo, human
Excerpt: FIGS. 21A-21B are a table (FIG. 21A) and a graph (FIG. 21B) describing the STS CMCM (“risk of suicide at within the next 7 day”) scores for Subject 1 and Subject 2 from Day 1 to Day 9 described in Example 3 of the study.
(§1) The S-STS CMCM (version 01/01/19) is a clinician-rated outcome measure which assesses SIB on a standard 22-item scale, as well as multiple patient and clinician-rated items. The first 16 items are rated on a Likert-type scale ranging from “not at all” (0) to “extremely” (4), where select scoring (i.e., 4 specific items are scored based on the highest score on 2 of those items) yields a total score ranging from 0 to 52. The final 6 items are used only when the patient misses a visit and is unable to complete the scale; if that missed visit is due to attempted or completed suicide, the possible maximum score is 100. The CMCM also yields 5 different single-item global assessments: 1) subject-rated likelihood of a suicide attempt; 2) subject-rated treatment needed; 3) clinician global severity of suicidal impulses, thoughts, and behaviors; 4) clinician judgment of suicide risk at this time and level of management needed for suicidality; and 5) clinician judgment of subject's likelihood of making a suicide attempt or of dying by suicide in the next 7 days.
(§2) The secondary endpoints will be the change from baseline at 24 hours, as well as at Day 16, in the following: • (1) S-STS total score • (2) MADRS total score at Day 16 (only) • (3) Clinical Global Impression (CGI) of Severity for SI/B (CGIS-SI/B) and Change in SI/B (CGIC-SI/B) • (4) Patient Global Impression (PGI) of Severity for SI/B (PGIS-SI/B) and Change in SI/B (PGIC-SI/B • (5) S-STS Clinician-Rated Global Severity of Suicidal Impulses, Thoughts, and Behaviors • (6) S-STS Clinician judgment of subject's risk of a suicide attempt or death by suicide at this time • (7) S-STS Clinician judgment of subject's likelihood (risk) of making a suicide attempt or of dying by suicide in the next 7 days • (8) S-STS Subject-rated global severity of suicidal impulses, thoughts, and behavior • (9) S-STS Subject-rated treatment needed score • (10) MADRS item 10 response rate (response ≤3) • (11) MADRS response (total score ≥50% reduction from baseline) • (12) MADRS remission (total score ≤12) Exploratory Endpoint:
(§3) This study is currently underway.

[4] = test system: adults with major depressive disorder at imminent risk of suicide; assay: Phase 2 study, MADRS item 10 (suicidality); type: in vivo, human; settings: baseline 5
Excerpt: The Montgomery-Asberg Depression Rating Scale (MADRS) is a diagnostic questionnaire that can be used to measure the severity of a depressive episode in a subject. In some embodiments, the MADRS can be used to measure suicidal ideation. […]

[5] = test system: adults with major depressive disorder at imminent risk of suicide; assay: Phase 2 study, MADRS total score; type: in vivo, human
Excerpt: The Montgomery-Asberg Depression Rating Scale (MADRS) is a diagnostic questionnaire that can be used to measure the severity of a depressive episode in a subject. In some embodiments, the MADRS can be used to measure suicidal ideation. For example, the MADRS includes 10 items directed to the following: 1) apparent sadness (e.g., representing despondency, gloom and despair that is more than just ordinary transient low spirits that is reflected in speech, facial expression, and posture); 2) reported sadness (e.g., representing reports of depressed mood, regardless of whether it is reflected in appearance or not and can include low spirits, despondency or the feeling of being beyond help and without hope); 3) inner tension (e.g., representing feelings of ill-defined discomfort, edginess, inner turmoil, mental tension mounting to either panic, dread or anguish); 4) reduced sleep (e.g., representing the experience of reduced duration or depth of sleep compared to the subject's own normal pattern when well); 5) reduced appetite (e.g., representing the feeling of a loss of appetite compared with when-well); 6) concentration difficulties (e.g., representing difficulties in collecting one's thoughts mounting to an incapacitating lack of concentration); 7) lassitude (e.g., representing difficulty in getting started or slowness in initiating and performing everyday activities); 8) inability to feel (e.g., representing the subjective experience of reduced interest in the surroundings, or activities that normally give pleasure, and the ability to react with adequate emotion to circumstances or people is reduced); 9) pessimistic thoughts (e.g., representing thoughts of guilt, inferiority, self-reproach, sinfulness, remorse and ruin); and 10) suicidal thoughts (e.g., representing the feeling that life is not worth living, that a natural death would be welcome, suicidal thoughts, and preparations for suicide). Each item is rated from 0 to 6, with 0 reflecting that the subject is not at all as described by the item and 6 reflecting that the subject is extremely like what is described by the item. […] As another example, for suicidal thoughts, a score of 0 can indicate that the subject enjoys life or takes it as it comes; a score of 2 can indicate that the subject is weary of life and may have fleeting suicidal thoughts; a score of 4 can indicate that the subject feels he or she would probably be better off dead (e.g., suicidal thoughts are common, and suicide is considered as a possible solution, but without specific plans or intention); and a score of 6 can indicate that the subject has explicit plans for suicide when there is an opportunity (e.g., the subject has made active preparations for suicide). […]

[6] = test system: adults with major depressive disorder at imminent risk of suicide; assay: Phase 2 study, overall preliminary outcome; type: in vivo, human; settings: two subjects, first eight days
Excerpt: as §3

[7] = test system: adults with major depressive disorder at imminent risk of suicide; assay: Phase 2 study, CADSS dissociation
[8] = test system: adults with major depressive disorder at imminent risk of suicide; assay: Phase 2 study, S-STS CMCM total score; type: in vivo, human
Excerpt: The S-STS CMCM (version 01/01/19) is a clinician-rated outcome measure which assesses SIB on a standard 22-item scale, as well as multiple patient and clinician-rated items. The first 16 items are rated on a Likert-type scale ranging from “not at all” (0) to “extremely” (4), where select scoring (i.e., 4 specific items are scored based on the highest score on 2 of those items) yields a total score ranging from 0 to 52. The final 6 items are used only when the patient misses a visit and is unable to complete the scale; if that missed visit is due to attempted or completed suicide, the possible maximum score is 100. The CMCM also yields 5 different single-item global assessments: 1) subject-rated likelihood of a suicide attempt; 2) subject-rated treatment needed; 3) clinician global severity of suicidal impulses, thoughts, and behaviors; 4) clinician judgment of suicide risk at this time and level of management needed for suicidality; and 5) clinician judgment of subject's likelihood of making a suicide attempt or of dying by suicide in the next 7 days. […]

[9] = test system: adults with major depressive disorder at imminent risk of suicide; assay: Phase 2 study, S-STS CMCM risk of suicide at this time; type: in vivo, human
Excerpt: FIGS. 20A-20B are a table (FIG. 20A) and a graph (FIG. 20B) describing the STS CMCM (“risk of suicide at this time”) scores for Subject 1 and Subject 2 from Day 1 to Day 9 described in Example 3 of the study.
as §1, §2, §3

[10] = Subject 2, 24 hours post-administration, baseline 7

NC1(c2ccccc2Cl)CCCC(O)C1=O (centres unmarked) [6-hydroxynorketamine]
antidepressant properties [1]: exhibit antidepressant properties

NC1(c2ccccc2Cl)CCCCC1=O (centres unmarked) [norketamine]
movement during the anesthetic recovery phase [2]: increased movement

CNC1(c2ccccc2Cl)CCCCC1=O (racemic) [intranasal racemic ketamine, racemic ketamine]
S-STS CMCM Risk of Suicide at Within the Next 7 Days score (range 1-10) ([3]; Subject 1, 24 hours post-administration, baseline 5): 2
S-STS CMCM Risk of Suicide at Within the Next 7 Days score (range 1-10) [3, 10]: 1
S-STS CMCM Risk of Suicide at Within the Next 7 Days score (range 1-10) ([3]; the scores, Day 4): 1
S-STS CMCM Risk of Suicide at Within the Next 7 Days score (range 1-10) ([3]; the scores, Day 8): 0
MADRS item 10 (suicidality) score (range 0-6) ([4]; Subject 1, 24 hours post-administration): 0
MADRS item 10 (suicidality) score (range 0-6) ([4]; second subject (not given), 24 hours post-administration): 0
MADRS total score ([5]; Subject 1, 24 hours post-administration, 90 mg IN plus SOC, baseline 35): 8
MADRS total score ([5]; Subject 2, 24 hours post-administration, 90 mg IN plus SOC, baseline 38): 15
MADRS total score ([5]; Subject 2, Day 8, after second dose on Day 4): 16
reduction of MADRS total score ([5]; both subjects, 24 hours post-administration): > 50%
improvements in depression and suicidality, preliminary data [6]: rapid, significant, and sustained improvements in depression and suicidality
sedation or dissociation, preliminary data [6]: no meaningful sedation or dissociation
CADSS score (dissociation) ([7]; Subject 1, all time points, clinical threshold score ≥4): zero
CADSS score (dissociation) ([7]; Subject 2, 40 minutes post-administration, clinical threshold score ≥4): 2
CADSS score (dissociation) ([7]; Subject 2, 1 hour post-administration): zero
movement during the anesthetic recovery phase [2]: increased movement
S-STS CMCM score (range 0-52) ([8]; Subject 1, 24 hours post-administration, baseline 18): zero
S-STS CMCM score (range 0-52) ([8]; Subject 2, 24 hours post-administration, baseline 22): 3
S-STS CMCM score (range 0-9), risk of suicide at this time ([9]; Subject 1, 24 hours post-administration, baseline 7): 3
S-STS CMCM score (range 0-9), risk of suicide at this time ([9]; Subject 1, Day 9): 2
S-STS CMCM score (range 0-9), risk of suicide at this time [9, 10]: 3
S-STS CMCM score (range 0-9), risk of suicide at this time ([9]; Subject 2, Day 9): zero
S-STS CMCM score (range 0-9), risk of suicide at this time ([9]; both subjects, Day 8): 2
antidepressant properties [1]: exhibit antidepressant properties
